Read-outs that look alike come from different tables or passages of the source.
How the values were obtained:
[1] = tested on: E. coli DH5α/pLBII-CTX-M15; assay: Broth microdilution MIC assay, engineered strain producing CTX-M15; format: cell-based, Escherichia coli; settings: Escherichia coli, read-out: E. coli DH5α/pLBII-CTX-M15 Microbiological Activity (MIC)
In short: (§1)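 CLSI broth microdilution in cation-supplemented Mueller-Hinton broth, 2-fold compound dilutions, 5×10^5 CFU/mL inoculum, 16-20 h at 37° C, MIC read visually as lowest concentration without growth. E. coli DH5α carries CTX-M15 on pLBII under Lac promoter, or empty pLBII as control.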

[2] = tested on: E. coli DH5α/pLBII; assay: Broth microdilution MIC assay, empty vector control strain; format: cell-based; settings: Escherichia coli, read-out: E. coli DH5α/pLBII Microbiological Activity (MIC)
In short: as §1

[3] = biological target: T1, PBP1a from Escherichia coli (Escherichia coli, UniProt P02918); assay: Radioligand competition binding assay with 14C-labeled boronic acid probe (Example 96); settings: PBP 0.1 μM
T1 construct: made in house
Excerpt: To determine the ability of boronic acid-based test PBP inhibitors to bind Penicillin Binding Proteins (PBPs), a radio-labelled boronic acid PBP inhibitor (Example 96) was used in competition binding assays to determine boronic acid PBP inhibitor binding to PBP1a or PBP1b from Escherichia coli. PBP1a and PBP1b were purified as described previously (Bertsche, U.; et al., J. Biol. Chem. 2005, 280 (45), 38096-38101; Born, P.; et al., J Biol. Chem. 2006. 281 (37), 26985-26993). To establish assay conditions for competition binding, an enzyme titration/saturation binding experiment was performed. Saturation binding was performed in a buffer comprised of 20 mM Tris (pH 7.5), 500 mM NaCl and 0.1% (v/v) TritonX-100, with PBP1a/PBP1b at a final concentration of 0.1 μM and 96 at final concentrations ranging from 0-100 μM. Mixtures were incubated for 60 minutes, then applied to Zeba Spin Desalting columns or plates (ThermoFisher Scientific) and centrifuged at 1000-1500×g for 2 minutes. The flow through, containing PBP bound with 96, was recovered and 100 μL mixed with 5 mL of UltimaGold liquid scintillation cocktail (Perkin Elmer), and the radioactivity counted using a Beckman Coulter LS 6500 Multipurpose scintillation counter. PBP binding of 96 approached saturation at 20 μM of ^14C-labeled probe. The competition binding assay was validated using the beta-lactam ampicillin, with 96 at a final concentration of 20 μM, PBP1a/PBP1b at a final concentration of 0.1 μM. PBP1a/PBP1b was incubated with ampicillin in a 96-well microplate for 60 minutes, then 96 was added and the mixtures incubated for an additional 60 minutes. The mixtures were then applied to Zeba Spin desalting plates and centrifuged at 1000×g for 2 minutes. The flow through was recovered and 100 μl mixed with 5 ml of UltimaGold liquid scintillation cocktail and the radioactivity counted. Ampicillin inhibited binding of 96 with an EC50 (the concentration of inhibitor required to reduce binding of 96 by 50%) of less than 0.5 μM. Binding assays with boronic acid PBP inhibitors were performed in an identical fashion. The potency of boronic acid PBP inhibitors was reported as the EC50 value.
Representative results are shown in Table 5, where A represents a potency of >100 μM, B represents a potency between 10 μM and 100 μM inclusive, and C represents a potency of <10 μM. NT=Not Tested.

[4] = biological target: T2, PBP3 from Escherichia coli (Escherichia coli, UniProt P0AD68); assay: Fluorescence polarization competition binding assay with Bocillin-FL
T2 construct: made in house
Excerpt: To determine the ability of boronic acid-based test PBP inhibitors to bind Penicillin Binding Proteins (PBPs), Bocillin-FL (fluorescently-labeled penicillin V; ThermoFisher Scientific) was used in a fluorescence polarization (FP) competition binding assay to assess boronic acid PBP inhibitor binding to PBP3 from Escherichia coli. PBP3 from Escherichia coli was cloned and purified as described previously (King, D. T, et al., ACS Infectious Diseases 2015, 1, 175-184). To establish assay conditions for competition binding, an enzyme titration/saturation binding experiment was performed. Bocillin-FL was prepared at […] in a buffer comprised of 50 mM Hepes (pH 8.0), 300 mM NaCl and 5% (v/v) glycerol. Saturation binding was performed by mixing […] of PBP3 ranging in concentrations from […] with 40 μl of the 0.2 μM Bocillin-FL solution, in individual wells of a black 384-well microplate. FP was measured immediately upon addition of PBP3 (Ex, Em), using a Cytation3 (BioTek) microplate reader and measured continuously for 60 minutes. […] The competition binding assay was validated using the beta-lactam ampicillin, with Bocillin-FL at a final concentration of 0.1 μM, PBP3 at a final concentration of 1.5 μM and concentrations of ampicillin from 0-1000 μM. PBP3 was incubated with ampicillin at different concentrations in a black 384-well microplate (Corning) for 30 minutes, then Bocillin-FL added and the FP immediately measured for 60 minutes. […] Binding assays for boronic acid PBP inhibitors were performed in an identical fashion. Representative results are shown in Table 3, where A represents a potency of >500 μM, B represents a potency between 30 μM and 500 μM inclusive, and C represents a potency of <30 μM. NT=Not Tested.

[5] = tested on: S. aureus ATCC 29213; assay: Broth microdilution MIC assay; format: cell-based; settings: Staphylococcus aureus, ATCC29213; broth microdilution, 16-20 hours at 37° C.; read-out: S. aureus 29213 MIC
In short: (§2)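 Two-fold serial dilutions tested per CLSI in cation-supplemented Mueller-Hinton broth against S. aureus ATCC 29213 and hyper-permeable E. coli 901C; inoculum 5×10^5 CFU/mL from 3-5 h log-phase culture. Incubated 16-20 h at 37° C; MIC read visually as lowest concentration with no growth.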

[6] = tested on: hyper-permeable E. coli 901C; assay: Broth microdilution MIC assay; format: cell-based; settings: Escherichia coli, read-out: E. coli 901C MIC
In short: as §2

[7] = E. coli K12 PBP1a EC50, 14C-labeled probe 96 at 20 μM
[8] = 14C-labeled probe 96 at 20 μM, read-out: E. coli K12 PBP1a EC50

T1 sequence (P02918 whole entry): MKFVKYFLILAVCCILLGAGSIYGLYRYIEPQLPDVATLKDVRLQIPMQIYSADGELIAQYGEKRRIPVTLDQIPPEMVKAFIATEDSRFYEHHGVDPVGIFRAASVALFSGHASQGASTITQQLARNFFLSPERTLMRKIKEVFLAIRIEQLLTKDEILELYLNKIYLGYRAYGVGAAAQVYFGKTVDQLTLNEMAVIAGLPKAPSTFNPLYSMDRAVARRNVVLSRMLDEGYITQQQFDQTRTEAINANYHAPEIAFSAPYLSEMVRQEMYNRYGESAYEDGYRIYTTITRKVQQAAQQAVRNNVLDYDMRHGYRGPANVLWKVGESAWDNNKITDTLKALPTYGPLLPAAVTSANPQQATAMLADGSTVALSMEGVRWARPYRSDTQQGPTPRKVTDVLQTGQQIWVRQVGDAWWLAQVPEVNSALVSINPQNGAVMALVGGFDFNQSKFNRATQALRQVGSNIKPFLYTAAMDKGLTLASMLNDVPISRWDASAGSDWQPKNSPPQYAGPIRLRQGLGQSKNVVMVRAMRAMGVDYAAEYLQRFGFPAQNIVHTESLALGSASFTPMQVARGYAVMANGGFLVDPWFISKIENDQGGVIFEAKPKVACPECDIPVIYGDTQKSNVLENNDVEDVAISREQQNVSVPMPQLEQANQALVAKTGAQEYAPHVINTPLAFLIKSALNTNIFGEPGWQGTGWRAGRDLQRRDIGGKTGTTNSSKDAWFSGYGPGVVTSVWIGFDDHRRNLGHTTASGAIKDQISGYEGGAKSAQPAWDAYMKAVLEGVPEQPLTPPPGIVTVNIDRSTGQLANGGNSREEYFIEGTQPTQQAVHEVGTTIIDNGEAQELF
T2 sequence (P0AD68 1-577): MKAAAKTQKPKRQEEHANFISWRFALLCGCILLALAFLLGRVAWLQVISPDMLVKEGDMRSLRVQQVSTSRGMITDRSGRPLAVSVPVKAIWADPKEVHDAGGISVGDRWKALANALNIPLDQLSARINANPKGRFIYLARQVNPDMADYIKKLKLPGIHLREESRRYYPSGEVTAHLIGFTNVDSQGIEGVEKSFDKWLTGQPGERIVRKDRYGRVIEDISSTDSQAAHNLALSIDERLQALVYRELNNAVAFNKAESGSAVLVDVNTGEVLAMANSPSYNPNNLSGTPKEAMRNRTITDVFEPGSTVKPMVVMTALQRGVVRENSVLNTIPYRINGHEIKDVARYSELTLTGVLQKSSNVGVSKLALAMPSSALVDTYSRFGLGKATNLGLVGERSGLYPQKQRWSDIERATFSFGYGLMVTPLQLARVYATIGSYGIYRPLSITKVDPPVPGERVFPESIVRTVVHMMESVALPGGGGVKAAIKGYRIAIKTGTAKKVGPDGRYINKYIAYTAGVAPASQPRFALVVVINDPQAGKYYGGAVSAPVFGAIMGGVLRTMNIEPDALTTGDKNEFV

CCN1CCN(C(=O)NC(C(=O)N[C@H]2Cc3cc(O)cc(C(=O)O)c3OB2O)c2csc(N)n2)C(=O)C1=O (stereo partly drawn) [Example 39, (3R)-3-(2-(2-aminothiazol-4-yl)-2-(4-ethyl-2,3-dioxopiperazine-1-carboxamido)acetamido)-2,6-dihydroxy-3,4-dihydro-2H-benzo[e][1,2]oxaborinine-8-carboxylic acid] was tested, and the MIC [1] was 32 to 64 µg/mL, the MIC [2] was 32 to 64 µg/mL and the EC50 [3, 7] was 10 to 100 µM. For the same compound, the EC50 [4] was 30 to 500 µM, the MIC [5] was > 128 µg/mL and the MIC [6] was < 64 µg/mL.

For Nc1nc(C(NC(=O)N2CCN(C3CC3)C(=O)C2=O)C(=O)N[C@H]2Cc3cccc(C(=O)O)c3OB2O)cs1 (stereo partly drawn) [Example 44, (3R)-3-(2-(2-aminothiazol-4-yl)-2-(4-cyclopropyl-2,3-dioxopiperazine-1-carboxamido)acetamido)-2-hydroxy-3,4-dihydro-2H-benzo[e][1,2]oxaborinine-8-carboxylic acid], the MIC [1] was 32 to 64 µg/mL, the MIC [2] was 32 to 64 µg/mL and the EC50 [3, 8] was < 10 µM. For the same compound, the EC50 [4] was 30 to 500 µM, the MIC [5] was 64 to 128 µg/mL and the MIC [6] was < 64 µg/mL.

In the case of Nc1nc(C(NC(=O)N2CCNC2=O)C(=O)N[C@H]2Cc3cccc(C(=O)O)c3OB2O)cs1 (stereo partly drawn) [Example 19, (3R)-3-(2-(2-aminothiazol-4-yl)-2-(2-oxoimidazolidine-1-carboxamido)acetamido)-2-hydroxy-3,4-dihydro-2H-benzo[e][1,2]oxaborinine-8-carboxylic acid], the MIC [1] is reported as 32 to 64 µg/mL, the MIC [2] is reported as 32 to 64 µg/mL and the EC50 [3, 8] is reported as < 10 µM. The EC50 [4] was 30 to 500 µM, the MIC [5] was 64 to 128 µg/mL and the MIC [6] was < 64 µg/mL.

For CCN1CCN(C(=O)N[C@@H](C(=O)N[C@H]2Cc3cccc(C(=O)O)c3OB2O)C(C)(C)C)C(=O)C1=O [Example 85, (R)-3-((R)-2-(4-ethyl-2,3-dioxopiperazine-1-carboxamido)-3,3-dimethylbutanamido)-2-hydroxy-3,4-dihydro-2H-benzo[e][1,2]oxaborinine-8-carboxylic acid], the MIC [1] was 128 to 256 µg/mL, the EC50 [3, 8] was < 10 µM and the EC50 [4] was < 30 µM. The MIC [5] was > 128 µg/mL and the MIC [6] was < 64 µg/mL.

In the case of CCC(O)[C@@H](NC(=O)N1CCN(CC)C(=O)C1=O)C(=O)N[C@H]1Cc2cccc(C(=O)O)c2OB1O (single isomer, unassigned) [Example 82], the MIC [1] is reported as 32 to 64 µg/mL, the MIC [2] is reported as 32 to 64 µg/mL and the EC50 [3, 8] is reported as < 10 µM. For the same compound, the EC50 [4] was 30 to 500 µM, the MIC [5] was > 128 µg/mL and the MIC [6] was < 64 µg/mL.

In the case of CCN1CCN(C(=O)N[C@@H](C(=O)N[C@H]2Cc3cccc(C(=O)O)c3OB2O)[C@H](C)O)C(=O)C1=O [Example 47, (R)-3-((2R,3S)-2-(4-Ethyl-2,3-dioxopiperazine-1-carboxamido)-3-hydroxy-butanamido)-2-hydroxy-3,4-dihydro-2H-benzo[e][1,2]oxaborinine-8-carboxylic acid], the MIC [1] is reported as 8 to 16 µg/mL, the MIC [2] is reported as 8 to 16 µg/mL and the EC50 [3, 8] is reported as < 10 µM. The EC50 [4] was > 500 µM, the MIC [5] was > 128 µg/mL and the MIC [6] was < 64 µg/mL.

With CN1CCN(C(=O)NC(C(=O)N[C@H]2Cc3cccc(C(=O)O)c3OB2O)c2csc(N)n2)C(=O)C1=O (stereo partly drawn) [Example 43, (3R)-3-(2-(2-aminothiazol-4-yl)-2-(4-methyl-2,3-dioxopiperazine-1-carboxamido)acetamido)-2-hydroxy-3,4-dihydro-2H-benzo[e][1,2]oxaborinine-8-carboxylic acid] the MIC [1] was 32 to 64 µg/mL, the MIC [2] was 32 to 64 µg/mL and the EC50 [3, 8] was > 100 µM. For the same compound, the EC50 [4] was 30 to 500 µM, the MIC [5] was 64 to 128 µg/mL and the MIC [6] was < 64 µg/mL.

For CCN1CCN(C(=O)NC(C(=O)N[C@H]2Cc3cc(OC)cc(C(=O)O)c3OB2O)c2csc(N)n2)C(=O)C1=O (stereo partly drawn) [Example 38, (3R)-3-(2-(2-aminothiazol-4-yl)-2-(4-ethyl-2,3-dioxopiperazine-1-carboxamido)acetamido)-2-hydroxy-6-methoxy-3,4-dihydro-2H-benzo[e][1,2]oxaborinine-8-carboxylic acid], the MIC [1] was 32 to 64 µg/mL, the MIC [2] was 32 to 64 µg/mL and the EC50 [3, 8] was < 10 µM. The EC50 [4] was > 500 µM, the MIC [5] was 64 to 128 µg/mL and the MIC [6] was < 64 µg/mL.

For Nc1nc(C(=O)NC(C(=O)N[C@H]2Cc3cccc(C(=O)O)c3OB2O)c2csc(N)n2)cs1 (stereo partly drawn) [Example 17, (3R)-3-(2-(2-aminothiazol-4-yl)-2-(2-aminothiazole-4-carboxamido)acetamido)-2-hydroxy-3,4-dihydro-2H-benzo[e][1,2]oxaborinine-8-carboxylic acid], the MIC [1] was 32 to 64 µg/mL, the MIC [2] was 32 to 64 µg/mL and the EC50 [3, 8] was > 100 µM. The EC50 [4] was 30 to 500 µM, the MIC [5] was < 64 µg/mL and the MIC [6] was < 64 µg/mL.

For Nc1nc(C(NC(=O)N2CCS(=O)(=O)CC2)C(=O)N[C@H]2Cc3cccc(C(=O)O)c3OB2O)cs1 (stereo partly drawn) [Example 65, (3R)-3-(2-(2-aminothiazol-4-yl)-2-(1,1-dioxidothiomorpholine-4-carboxamido)acetamido)-2-hydroxy-3,4-dihydro-2H-benzo[e][1,2]oxaborinine-8-carboxylic acid], the MIC [1] was 32 to 64 µg/mL, the MIC [2] was 32 to 64 µg/mL and the EC50 [3, 7] was < 10 µM. For the same compound, the EC50 [4] was 30 to 500 µM, the MIC [5] was 64 to 128 µg/mL and the MIC [6] was < 64 µg/mL.

Compound CC(C)N1CCN(C(=O)NC(C(=O)N[C@H]2Cc3cccc(C(=O)O)c3OB2O)c2csc(N)n2)C(=O)C1=O (stereo partly drawn) [Example 55, (3R)-3-(2-(2-aminothiazol-4-yl)-2-(4-isopropyl-2,3-dioxopiperazine-1-carboxamido)acetamido)-2-hydroxy-3,4-dihydro-2H-benzo[e][1,2]oxaborinine-8-carboxylic acid] has an MIC [1] of 8 to 16 µg/mL, an MIC [2] of 8 to 16 µg/mL and an EC50 [4] of 30 to 500 µM. For the same compound, the MIC [5] was 64 to 128 µg/mL and the MIC [6] was < 64 µg/mL.

COCCN1CCN(C(=O)NC(C(=O)N[C@H]2Cc3cccc(C(=O)O)c3OB2O)c2csc(N)n2)C(=O)C1=O (stereo partly drawn) [Example 61, (3R)-3-(2-(2-aminothiazol-4-yl)-2-(4-(2-methoxyethyl)-2,3-dioxopiperazine-1-carboxamido)acetamido)-2-hydroxy-3,4-dihydro-2H-benzo[e][1,2]oxaborinine-8-carboxylic acid] was tested, and the MIC [1] was 32 to 64 µg/mL, the MIC [2] was 32 to 64 µg/mL and the EC50 [4] was < 30 µM. For the same compound, the MIC [5] was 64 to 128 µg/mL and the MIC [6] was < 64 µg/mL.

Reference: patent publication US11332485B2, “Penicillin-binding protein inhibitors” (priority 2017, dated 2022)
